From patent US10201546B2, “Quinolinyl modulators of RORγt” (Janssen Pharmaceutica NV, priority 2013, dated 2019)
Where two headings read alike, the source gives them in different places.

Experiments:
[1] = target: human RORγt ligand binding domain (RORγt LBD) (Homo sapiens (Human), UniProt P51449); assay: RORγt ThermoFluor assay (thermal shift, binding affinity Kd)
[2] = target: human RORγt LBD fused to the DNA binding domain of the GAL4 protein (Homo sapiens (Human), UniProt P51449); assay: RORγt (LBD) reporter assay in HEK293T cells; assay type: cell-based; set-up: RORγt (LBD) Reporter Assay, % inhibition: dose or concentration left out as unconfirmed; details: for inhibition at 6 µM: HEK-293T, read-out: RORγt (LBD) Reporter Assay, % inhibition @ 6 μM, @ 6 μM
human RORγt LBD fused to the DNA binding domain of the GAL4 protein, sequence (P51449 258-518): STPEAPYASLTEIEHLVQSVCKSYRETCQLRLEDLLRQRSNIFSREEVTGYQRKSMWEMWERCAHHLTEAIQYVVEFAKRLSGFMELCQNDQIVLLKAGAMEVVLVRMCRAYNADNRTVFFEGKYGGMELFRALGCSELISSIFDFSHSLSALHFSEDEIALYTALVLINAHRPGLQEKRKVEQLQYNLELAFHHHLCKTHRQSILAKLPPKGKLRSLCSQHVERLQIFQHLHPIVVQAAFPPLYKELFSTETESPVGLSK

[3] = read-out: ThermoFluor Assay, Kd
[4] = read-out: ThermoFluor ® Assay, Kd

human RORγt ligand binding domain (RORγt LBD), sequence (P51449 other isoform, or with tags, fused parts or gaps): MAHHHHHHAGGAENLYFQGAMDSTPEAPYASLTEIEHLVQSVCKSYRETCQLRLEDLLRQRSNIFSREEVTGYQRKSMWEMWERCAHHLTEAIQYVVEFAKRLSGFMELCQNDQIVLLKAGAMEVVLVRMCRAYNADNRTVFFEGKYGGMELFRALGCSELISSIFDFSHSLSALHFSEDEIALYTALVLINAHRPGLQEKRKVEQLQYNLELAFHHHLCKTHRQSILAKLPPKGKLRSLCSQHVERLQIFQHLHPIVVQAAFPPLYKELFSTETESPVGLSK

| Kd [1, 3] | IC50 [2] | Kd [1, 4] | Compound | further results |
| --- | --- | --- | --- | --- |
| 220 nM | > 6000 nM |  | COc1nc2ccc(C(O)(c3cncn3C)C3CCN(S(C)(=O)=O)CC3)cc2c(Cl)c1CC1CCOCC1 (stereo not drawn) [Example 6a, (4-Chloro-2-methoxy-3-((tetrahydro-2H-pyran-4-yl)methyl)quinolin-6-yl)(1-methyl-1H-imidazol-5-yl)(1-(methylsulfonyl)piperidin-4-yl)methanol] | inhibition at 6 µM [2]: 26% |
| 130 nM | > 6000 nM |  | COc1nc2ccc(C(O)(c3cncn3C)C3CCN(S(C)(=O)=O)CC3)cc2c(Cl)c1CC1CCOCC1 (single isomer, unassigned) [Example 6c, (4-Chloro-2-methoxy-3-((tetrahydro-2H-pyran-4-yl)methyl)quinolin-6-yl)(1-methyl-1H-imidazol-5-yl)(1-(methylsulfonyl)piperidin-4-yl)methanol] | RORγt (LBD) Reporter Assay, % inhibition @ 6 μM ([2]; @ 6 μM): 26% |
| 3300 nM | > 6000 nM |  | COc1nc2ccc(C(O)(c3ccc(C)nc3C)c3cnnn3C)cc2c(Cl)c1OCCS(C)(=O)=O (stereo not drawn) [Example 70a, {4-Chloro-2-methoxy-3-[2-(methylsulfonyl)ethoxy]quinolin-6-yl}(2,6-dimethylpyridin-3-yl)(1-methyl-1H-1,2,3-triazol-5-yl)methanol] | inhibition at 6 µM [2]: 36% |
| 5000 nM | > 6000 nM |  | COc1nc2ccc(C(O)(c3cnc(C)n3C)c3cnc(C)n3C)cc2c(Cl)c1OC1CCCN(C)C1 (single isomer, unassigned) [Example 51c, (4-Chloro-2-methoxy-3-{[1-methylpiperidin-3-yl]oxy}quinolin-6-yl)[bis(1,2-dimethyl-1H-imidazol-5-yl)]methanol] | inhibition at 6 µM [2]: -4% |
| 240 nM | > 6000 nM |  | COc1nc2ccc(C(O)(c3cncn3C)C3CCN(S(C)(=O)=O)CC3)cc2c(Cl)c1CC1CCOCC1 (single isomer, unassigned) [Example 6b, (4-Chloro-2-methoxy-3-((tetrahydro-2H-pyran-4-yl)methyl)quinolin-6-yl)(1-methyl-1H-imidazol-5-yl)(1-(methylsulfonyl)piperidin-4-yl)methanol] | inhibition at 6 µM [2]: 17% |
| 3000 nM |  |  | COc1nc2ccc(C(O)(c3cnc(C)n3C)c3cnc(C)n3C)cc2c(Cl)c1OC1CCCN(C)C1 (single isomer, unassigned) [Example 51b, (4-Chloro-2-methoxy-3-{[1-methylpiperidin-3-yl]oxy}quinolin-6-yl)[bis(1,2-dimethyl-1H-imidazol-5-yl)]methanol] |  |
|  | > 6000 nM | > 24000 nM | Cc1ccc(C(O)(c2ccc3nc(Cl)c(CC(F)(F)F)c(N4CCC4)c3c2)c2cnnn2C)c(C)n1 (stereo not drawn) [Example 238a, [4-(Azetidin-1-yl)-2-chloro-3-(2,2,2-trifluoroethyl)-6-quinolyl]-(2,6-dimethyl-3-pyridyl)-(3-methyltriazol-4-yl)methanol] | RORγt (LBD) Reporter Assay, % inhibition [2]: −8% |
|  |  | 98 nM | COc1nc2ccc(C(O)(c3ccc(C(F)(F)F)nc3)c3cncn3C)cc2c(C#N)c1CN1CCC(C(F)(F)F)CC1 (single isomer, unassigned) [Example 191b, 6-(Hydroxy(1-methyl-1H-imidazol-5-yl)(6-(trifluoromethyl)pyridin-3-yl)methyl)-2-methoxy-3-((4-(trifluoromethyl)piperidin-1-yl)methyl)quinoline-4-carbonitrile] |  |

Second part, the compound before the results:

| Compound | Kd [1, 3] | IC50 [2] | Kd [1, 4] | further results |
| --- | --- | --- | --- | --- |
| COc1nc2ccc(C(O)(c3ccc(C)nc3C)c3cnnn3C)cc2c(Cl)c1CC1CCS(=O)(=O)CC1 (single isomer, unassigned) [Example 2c, 4-((4-Chloro-6-((2,6-dimethylpyridin-3-yl)(hydroxy)(1-methyl-1H-1,2,3-triazol-5-yl)methyl)-2-methoxyquinolin-3-yl)methyl)tetrahydro-2H-thiopyran 1,1-dioxide] |  |  |  | Kd ([1]; ThermoFluor Assay, Kd): 110 nM |
| COc1nc2ccc(C(O)(c3cnc(C)n3C)c3cnc(C)n3C)cc2c(Cl)c1CNC(=O)CCC(F)(F)F [Example 186, N-((6-(Bis(1,2-dimethyl-1H-imidazol-5-yl)(hydroxy)methyl)-4-chloro-2-methoxyquinolin-3-yl)methyl)-4,4,4-trifluorobutanamide] |  |  | 590 nM |  |
| CC(=O)N1CCC(C(O)(c2ccc3nc(C(F)(F)F)c(C(=O)N4CCCCC4)c(C(F)(F)F)c3c2)c2cncn2C)CC1 (stereo not drawn) [Example 9, 1-(4-(Hydroxy(1-methyl-1H-imidazol-5-yl)(3-(piperidine-1-carbonyl)-2,4-bis(trifluoromethyl)quinolin-6-yl)methyl)piperidin-1-yl)ethanone] | 8200 nM | > 6000 nM |  | inhibition at 6 µM [2]: 16% |
| COc1nc2ccc(C(O)(c3ccc(C)nc3C)c3cnnn3C)cc2c(Cl)c1C(=O)N(C)C (stereo not drawn) [Example 148, 4-Chloro-6-[(2,6-dimethylpyridin-3-yl)(hydroxy)(1-methyl-1H-1,2,3-triazol-5-yl)methyl]-2-methoxy-N,N-dimethylquinoline-3-carboxamide] |  |  | 1700 nM |  |
| COc1nc2ccc(C(O)(c3ccc(C)nc3C)c3cnnn3C)cc2c(Cl)c1C(=O)N1CC(F)(F)C1 (stereo not drawn) [Example 153, {4-Chloro-3-[(3,3-difluoroazetidin-1-yl)carbonyl]-2-methoxyquinolin-6-yl}(2,6-dimethylpyridin-3-yl)(1-methyl-1H-1,2,3-triazol-5-yl)methanol] |  |  | 3000 nM |  |
| COc1nc2ccc(C(O)(c3ccc(C)nc3C)c3cnnn3C)cc2c(Cl)c1C(=O)N1CCCC1 (stereo not drawn) [Example 151, [4-Chloro-2-methoxy-3-(pyrrolidin-1-ylcarbonyl)quinolin-6-yl](2,6-dimethylpyridin-3-yl)(1-methyl-1H-1,2,3-triazol-5-yl)methanol] |  |  | 5100 nM |  |
| COc1nc2ccc(C(O)(c3ccc(C)nc3C)c3cnnn3C)cc2c(Cl)c1C(=O)NCC(F)(F)F (stereo not drawn) [Example 152, 4-Chloro-6-[(2,6-dimethylpyridin-3-yl)(hydroxy)(1-methyl-1H-1,2,3-triazol-5-yl)methyl]-2-methoxy-N-(2,2,2-trifluoroethyl)quinoline-3-carboxamide] |  |  | 600 nM |  |
| COc1nc2ccc(C(O)(c3cnc(C)n3C)c3cnc(C)n3C)cc2c(Cl)c1CNC(=O)CC(F)(F)F [Example 185, N-((6-(Bis(1,2-dimethyl-1H-imidazol-5-yl)(hydroxy)methyl)-4-chloro-2-methoxyquinolin-3-yl)methyl)-3,3,3-trifluoropropanamide] |  |  | 770 nM |  |
| COc1nc2ccc(C(O)(c3ccc(C)nc3C)c3cnnn3C)cc2c(Cl)c1C(=O)N1CCC(C(F)(F)F)CC1 (stereo not drawn) [Example 83, (4-Chloro-2-methoxy-3-{[4-(trifluoromethyl)piperidin-1-yl]carbonyl}quinolin-6-yl)(2,6-dimethylpyridin-3-yl)(1-methyl-1H-1,2,3-triazol-5-yl)methanol] | 360 nM |  |  |  |
| COc1nc2ccc(C(O)(c3cnc(C)n3C)c3cnc(C)n3C)cc2c(Cl)c1OCC1CCCN1C (stereo not drawn) [Example 52, {4-Chloro-2-methoxy-3-[(1-methylpyrrolidin-2-yl)methoxy]quinolin-6-yl}[bis(1,2-dimethyl-1H-imidazol-5-yl)]methanol] | 2900 nM |  |  |  |
| COc1nc2ccc(C(O)(c3ccc(C)nc3C)c3cnnn3C)cc2c(Cl)c1C(=O)NCC1CC1 (stereo not drawn) [Example 147, 4-Chloro-N-(cyclopropylmethyl)-6-[(2,6-dimethylpyridin-3-yl)(hydroxy)(1-methyl-1H-1,2,3-triazol-5-yl)methyl]-2-methoxyquinoline-3-carboxamide] |  |  | 930 nM |  |
